Reference: publication PMC2643072 (Journal of medicinal chemistry, 2008)

Biological target: T1, porcine erythrocyte μ-calpain (Sus scrofa, UniProt P35750)
T1 sequence (P35750 1-714): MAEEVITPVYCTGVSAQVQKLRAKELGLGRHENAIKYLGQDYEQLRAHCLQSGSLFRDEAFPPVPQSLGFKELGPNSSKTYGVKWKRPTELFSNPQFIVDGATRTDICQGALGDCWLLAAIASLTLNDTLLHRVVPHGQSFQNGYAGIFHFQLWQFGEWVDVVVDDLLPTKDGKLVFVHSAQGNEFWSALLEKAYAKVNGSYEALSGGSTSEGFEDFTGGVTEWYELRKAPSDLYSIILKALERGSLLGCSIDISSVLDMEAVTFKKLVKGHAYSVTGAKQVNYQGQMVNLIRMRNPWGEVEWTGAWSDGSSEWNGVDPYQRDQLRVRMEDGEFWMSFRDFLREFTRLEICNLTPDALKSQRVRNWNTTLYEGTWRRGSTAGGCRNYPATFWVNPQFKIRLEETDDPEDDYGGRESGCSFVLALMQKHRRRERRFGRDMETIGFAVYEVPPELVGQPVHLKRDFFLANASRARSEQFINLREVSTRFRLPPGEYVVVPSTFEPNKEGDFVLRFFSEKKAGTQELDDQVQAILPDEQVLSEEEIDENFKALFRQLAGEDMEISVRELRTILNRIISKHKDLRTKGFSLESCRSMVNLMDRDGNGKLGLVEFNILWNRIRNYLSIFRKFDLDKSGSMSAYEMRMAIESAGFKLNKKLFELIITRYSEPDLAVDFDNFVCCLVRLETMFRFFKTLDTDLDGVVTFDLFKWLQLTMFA
T1 sequence (P04574 1-266 partner): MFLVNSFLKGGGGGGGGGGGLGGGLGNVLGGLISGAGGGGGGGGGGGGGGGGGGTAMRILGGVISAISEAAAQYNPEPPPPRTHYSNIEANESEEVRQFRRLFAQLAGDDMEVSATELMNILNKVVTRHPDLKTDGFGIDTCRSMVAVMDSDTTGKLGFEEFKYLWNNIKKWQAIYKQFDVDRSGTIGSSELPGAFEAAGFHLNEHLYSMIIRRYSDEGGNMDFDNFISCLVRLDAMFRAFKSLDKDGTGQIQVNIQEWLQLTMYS
Test: μ-Calpain inhibition assay
Format: biochemical

SMILES	μ-calpain inhibitory potency relative to 2c (diphenylpropionyl (2d) vs diphenylacetyl (2c) N-terminal cap)	fold more potent than 2a and 2b (μ-calpain inhibition) (planar fluorene cap vs cyclohexyl (2a) and adamantyl (2b) caps)
CC(C)C[C@H](NC(=O)CC(c1ccccc1)c1ccccc1)C(=O)NC(Cc1ccccc1)C(=O)C(=O)O (stereo partly drawn) [Compound 2d, N-(3,3-Diphenylpropionyl)-L-leucyl-2-oxo-3(R,S)-amino-4-phenylbutanoic acid]	about twice as potent	–
CC(C)C[C@H](NC(=O)CC1c2ccccc2-c2ccccc21)C(=O)NC(Cc1ccccc1)C(=O)C(=O)O (stereo partly drawn) [Compound 2e, N-(9-Fluoreneacetyl)-L-leucyl-2-oxo-3(R,S)-amino-4-phenylbutanoic acid]	–	over 5 fold
